This is an account of results in patent publication EP4722219A1 (Gan & Lee Pharmaceuticals Co., Ltd., priority 2023, dated 2024).

What is called IC50 is the point on the concentration scale where inhibition reaches its midpoint.

For assay [1], the system named is T-47D cells. Put plainly: Inhibition of cell proliferation in T-47D cells (CCK-8). The assay is classed as cell-based. To be noted: 6 days treatment, CCK-8 cell viability. How it is done:
Test Example 2 Inhibitory effect of PROTAC compounds provided by the present invention on cell proliferation in T-47D cells
The complete culture medium required for T-47D cells is 1640 (ATCC, Product number: A10491-01) basal culture medium containing 10% fetal bovine serum. T-47D cells were seeded in 96-well plates at a density of 3,000 cells/well, and different concentrations of PROTAC compounds 1-55 provided in the examples of the present invention and positive control sample ARV-471 (source: Inokai) were prepared to treat the cells and incubated at 37 °C, 5% CO2 cell culture incubator for 6 days. According to the manufacturer's instructions, cell viability was detected using a CCK-8 kit (Beyotime, Product number: C0040). The IC50 of each compound after treating for 6 days was calculated using GraphPadPrism software based on the inhibition rate. Table 2 Inhibition IC50 value of T-47D cell proliferation by PROTAC compounds provided by the present invention and positive control sample

Assay [2] concerns MCF-7 cells. Put plainly: Inhibition of cell proliferation in MCF-7 cells (CCK-8). The format is cell-based. To be noted: MCF-7 cell proliferation, 6 days treatment. How it is done:
Test Example 3 Inhibitory effect of PROTAC compounds provided by the present invention on cell proliferation in MCF-7 cells
The complete culture medium required for MCF-7 cells (source ATCC) is DMEM (gibco, Product number: 11995-065) basal culture medium containing 10% fetal bovine serum. MCF-7 cells were seeded in 96-well plates at a density of 800 cells/well, and different concentrations of PROTAC compounds 1-55 provided in the examples of the present invention and positive control sample ARV-471 (source: Inokai) were prepared to treat the cells and incubated at 37 °C, 5% CO2 cell culture incubator for 6 days. According to the manufacturer's instructions, cell viability was detected using a CCK-8 kit (Beyotime, Product number: C0040). The IC50 of each PROTAC compound after treating for 6 days was calculated using GraphPadPrism software based on the inhibition rate. Table 3 Inhibition IC50 value of MCF-7 cell proliferation by PROTAC compounds of the present invention and positive control sample

With `O=C1CCC(N2Cc3c(ccc4c3OCC43CCC4(CC3)CN(CC3CCC(OC5CCN(c6ccc([C@@H]7c8ccc(O)cc8CC[C@@H]7c7ccccc7)cc6)CC5)CC3)C4)C2=O)C(=O)N1` (stereo partly drawn) [ER-P-78, 3-(1-(((1S,4S)-4-((1-(4-((1R,2S)-6-hydroxy-2-phenyl-1,2,3,4-tetrahydronaphthalen-1-yl)phenyl)piperidin-4-yl)oxy)cyclohexyl)methyl)-6"-oxo-6'',8''-dihydro-2"H,7"H-dipyrine[azetidine-3,1'-cyclohexane-4',3"-furo[2,3-e]isoindol]-7"-yl)piperidine-2,6-dione], the values for the half-inhibitory concentration (IC50) in assay [1] and in assay [2] were 0.0058 µM and 0.737 µM, respectively.
For `O=C1CCC(N2Cc3c(ccc4c3OCC43CCC4(CCN(C[C@H]5CC[C@@H](OC6CCN(c7ccc([C@@H]8c9ccc(O)cc9CC[C@@H]8c8ccccc8)cc7)CC6)CC5)CC4)CC3)C2=O)C(=O)N1` (stereo partly drawn) [ER-P-79, 3-(1"-(((1S,4S)-4-((1-(4-((1R,2S)-6-hydroxy-2-phenyl-1,2,3,4-tetrahydronaphthalen-1-yl)phenyl)piperidin-4-yl)oxy)cyclohexyl)methyl)-6-oxo-6,8-dihydro-2H,7H-dispiro[furo[2,3-e]isoindole-3,1'-cyclohexane-4',4"-piperidin]-7-yl)piperidine-2,6-dione], in that order: 0.00846 µM and 0.0634 µM.
For `Cn1c(=O)n(C2CCC(=O)NC2=O)c2cc3c(cc21)OC1(CC3)CCN(CC2CC(OC3CCN(c4ccc([C@@H]5c6ccc(O)cc6CC[C@@H]5c5ccccc5)cc4)CC3)C2)CC1` (stereo partly drawn) [ER-P-81, 3-(1'-(((1S,3s)-3-((1-(4-((1R,2S)-6-hydroxy-2-phenyl-1,2,3,4-tetrahydronaphthalen-1-yl)phenyl)piperidin-4-yl)oxy)cyclobutyl)methyl)-3-methyl-2-oxo-2,3,7,8-tetrahydro-1H-spiro[chromeno[6,7-d]imidazole-6,4'-piperidin]-1-yl)piperidine-2,6-dione], the figures for the half-maximal inhibitory concentration (IC50) in assay [1] and in assay [2] were 0.00257 µM and 0.0016 µM, respectively.
Take `O=C1CC[C@H](NC(=O)c2ccc3c(c2F)OCC32CCN(CC3CCC(OC4CCN(c5ccc([C@@H]6c7ccc(O)cc7CC[C@@H]6c6ccccc6)cc5)CC4)CC3)CC2)C(=O)N1` (stereo partly drawn) [ER-P-82, N-((S)-2,6-dioxopiperidin-3-yl)-7-fluoro-1'-(((1S,4R)-4-((1-(4-((1R,2S)-6-hydroxy-2-phenyl-1,2,3,4-tetrahydronaphthalen-1-yl)phenyl)piperidin-4-yl)oxy)cyclohexyl)methyl)-2H-spiro[benzofuran-3,4'-piperidine]-6-carboxamide]: the IC50 in assay [1] turned out to be 0.0281 µM; in assay [2], 4.39 µM.
Regarding `O=C1CC[C@H](NC(=O)c2cc3c(cc2F)OCC32CCN(CC3CCC(OC4CCN(c5ccc([C@@H]6c7ccc(O)cc7CC[C@@H]6c6ccccc6)cc5)CC4)CC3)CC2)C(=O)N1` (stereo partly drawn) [ER-P-83, N-((S)-2,6-dioxopiperidin-3-yl)-6-fluoro-1'-(((1S,4R)-4-((1-(4-((1R,2S)-6-hydroxy-2-phenyl-1,2,3,4-tetrahydronaphthalen-1-yl)phenyl)piperidin-4-yl)oxy)cyclohexyl)methyl)-2H-spiro[benzofuran-3,4'-piperidine]-5-carboxamide], the IC50 in assay [1] came to 0.138 µM; in assay [2], 4.33 µM.
For `COc1cc2c(cc1C(=O)N[C@H]1CCC(=O)NC1=O)OCC21CCN(CC2CCC(OC3CCN(c4ccc([C@@H]5c6ccc(O)cc6CC[C@@H]5c5ccccc5)cc4)CC3)CC2)CC1` (stereo partly drawn) [ER-P-84, N-((S)-2,6-dioxopiperidin-3-yl)-1'-(((1S,4R)-4-((1-(4-((1R,2S)-6-hydroxy-2-phenyl-1,2,3,4-tetrahydronaphthalen-1-yl)phenyl)piperidin-4-yl)oxy)cyclohexyl)methyl)-5-methoxy-2H-spiro[benzofuran-3,4'-piperidine]-6-carboxamide], in that order: 0.0177 µM and 8.33 µM.
As to `O=C1CC[C@H](NC(=O)c2c(F)ccc3c2OCC32CCN(CC3CCC(OC4CCN(c5ccc([C@@H]6c7ccc(O)cc7CC[C@@H]6c6ccccc6)cc5)CC4)CC3)CC2)C(=O)N1` (some centres unmarked) [ER-P-86], the figures for the half-inhibitory concentration (IC50) in assay [1] and in assay [2] were 0.0688 µM and 6.67 µM, respectively.
For the molecule `O=C1CCC(NC(=O)c2cc3c(cc2F)C2(CCN(CC4CCC(OC5CCN(c6ccc(C7c8ccc(O)cc8CCC7c7ccccc7)cc6)CC5)CC4)CC2)CO3)C(=O)N1` [ER-P-87, N-((S)-2,6-dioxopiperidin-3-yl)-5-fluoro-1'-(((1S,4R)-4-((1-(4-((1R,2S)-6-hydroxy-2-phenyl-1,2,3,4-tetrahydronaphthalen-1-yl)phenyl)piperidin-4-yl)oxy)cyclohexyl)methyl)-2H-spiro[benzofuran-3,4'-piperidine]-6-carboxamide], the IC50 stood at 0.053 µM in assay [1] (Homo sapiens, T47D, 144 h) and 4 µM in assay [2] (Homo sapiens, MCF7, 144 h).
Regarding `COc1cc2c(cc1C(=O)NC1CCC(=O)NC1=O)CCC1(CCN(CC3CCC(OC4CCN(c5ccc(C6c7ccc(O)cc7CCC6c6ccccc6)cc5)CC4)CC3)CC1)O2` (centres unmarked) [ER-P-88], the IC50 was determined as 0.00959 µM in assay [1] (Homo sapiens, T47D, 144 h) and 1.03 µM in assay [2] (Homo sapiens, MCF7, 144 h).
For `O=C1CCC(NC(=O)c2cc3c(cc2F)OC2(CC3)CCN(CC3CCC(OC4CCN(c5ccc(C6c7ccc(O)cc7CCC6c6ccccc6)cc5)CC4)CC3)CC2)C(=O)N1` [ER-P-89, N-((S)-2,6-dioxopiperidin-3-yl)-7-fluoro-1'-(((1S,4s)-4-((1-(4-((1R,2S)-6-hydroxy-2-phenyl-1,2,3,4-tetrahydronaphthalen-1-yl)phenyl)piperidin-4-yl)oxy)cyclohexyl)methyl)spiro[chromane-2,4'-piperidine]-6-carboxamide], in that order: 0.104 µM and 2.74 µM.
For `O=C1CCC(NC(=O)c2cc3c(cc2F)CCC2(CCN(CC4CCC(OC5CCN(c6ccc(C7c8ccc(O)cc8CCC7c7ccccc7)cc6)CC5)CC4)CC2)O3)C(=O)N1` [ER-P-90, N-((S)-2,6-dioxopiperidin-3-yl)-6-fluoro-1'-((((1S,4R)-4-((1-(4-((1R,2S)-6-hydroxy-2-phenyl-1,2,3,4-tetrahydronaphthalen-1-yl)phenyl)piperidin-4-yl)oxy)cyclohexyl)methyl)spiro[chromane-2,4'-piperidine]-7-carboxamide], in that order: 0.171 µM and 3.65 µM.
On the same counts, the results for `COc1cc2c(cc1C(=O)NC1CCC(=O)NC1=O)C1(CCN(CC3CCC(OC4CCN(c5ccc(C6c7ccc(O)cc7CCC6c6ccccc6)cc5)CC4)CC3)CC1)CO2` [ER-P-91, N-((S)-2,6-dioxopiperidin-3-yl)-1'-(((1S,4R)-4-((1-(4-((1R,2S)-6-hydroxy-2-phenyl-1,2,3,4-tetrahydronaphthalen-1-yl)phenyl)piperidin-4-yl)oxy)cyclohexyl)methyl)-6-methoxy-2H-spiro[benzofuran-3,4'-piperidine]-5-carboxamide] are 0.15 µM and 7.94 µM.
As for “N-((S)-2,6-dioxopiperidin-3-yl)-6'-fluoro-1-(((1 S,4R)-4-((1-(4-((1R,2S)-6-hydroxy-2-phenyl-1,2,3,4-tetrahydronaphthalen-1-yl)phenyl)piperidin-4-yl)oxy)cyclohexyl)methy l)spiro[azetidine-3,2'-chromane]-7'-carboxamide [ER-P-85]”, the results for the IC50 in assay [1] and in assay [2] were 0.0709 µM and 0.956 µM, respectively.
